# Data published in patent publication US11766430B2, “Methods of using a phenoxypropylamine compound to treat pain” (Minerva Neurosciences, Inc., priority 2018, dated 2023).
# Entries after “also recorded” stand apart in the source; their conditions may differ.
# Tested on: paclitaxel-induced peripheral neuropathic pain in rats
# Assay: Reversal of paclitaxel-induced peripheral neuropathic pain, paw withdrawal threshold, chronic administration (Example 6)
# Format: in vivo, Male Sprague Dawley rats
# Conditions: hydrochloride; for PWT compared to vehicle (in words): days 14, 21 and 28, 2 hours post dosing
# Description: Male Sprague Dawley rats from Envigo were used in the study. Animals were received at approximately 250 g and housed 3 per cage upon arrival. All rats were examined, handled, and weighed prior to initiation of the study to assure adequate health and suitability. During the course of the study, 12/12 light/dark cycles was maintained. The room temperature was be maintained between 20 and 23° C. with a relative humidity maintained around 50%. Chow and water was provided ad libitum for the duration of the study. All testing was performed during the animal's light cycle phase.
# Paclitaxel (2 mg/kg) was purchased from Biolyse Pharma and injected i.p. on four alternate days (day 1, 3, 5 and 7) for a total of 4 injections at a dose volume of 1 mL/kg.
# Gabapentin (100 mg/kg) was dissolved in saline and administered orally at a dose volume of 1 mL/kg. For prevention study, gabapentin was administered on day 14, sixty minutes prior to test. For reversal study, gabapentin was administered once daily for 2 weeks. On test days it was administered 60 minutes prior to test.
# Reversal study: MIN-117 (1, 3 and 10 mg/kg) was formulated in 0.5% (w/v) hydroxypropylmethyl cellulose (HPMC) 8°-120 centipoises in water and administered i.p once daily for 2 weeks at a dose volume of 1 mL/kg. On test days, MIN-117 was administered 2 hours prior to test.
# Rats were administered paclitaxel (2 mg/kg) on four alternate days (days 1, 3, 5 and 7). Baseline and post treatment Paw Withdrawal Threshold (PWT) were evaluated using von Frey filaments (Semmes-Weinstein filaments, Stoelting, Wood Dale, Ill., USA) of varying stiffness (0.4, 0.7, 1.2, 2.0, 3.6, 5.5, 8.5, 10, 15, 26 g). Animals were placed on a perforated metallic platform and allowed to acclimate to their surroundings for a minimum of 15 minutes before each test session. Each filament was presented perpendicular to the plantar surface with sufficient force to cause slight buckling against the paw, and then held until a positive response is noted (paw sharply withdrawn). As described by Chaplan et al. 1994, once the threshold was crossed, the 2 responses straddling the threshold are retrospectively designated as the first 2 responses. Four additional responses were measured to stimuli varied sequentially up or down based on the animal's response. The 6 responses in the immediate vicinity of the threshold were used to calculate the 50% g threshold: 50% g threshold=(10^[Xf+k*d])/10000 Xf is the final filament used (in log units). The parameter k is from the Appendix 1 in Chaplan and was determined by the pattern of the von Frey responses (e.g. OXOXOX where ‘O’ indicates no response and ‘X’ denotes a withdrawal). The parameter d is the difference between stimuli which Chaplan used a constant d=0.224. To accommodate for the use of the 10 g and 26 g filaments, the exact difference between stimuli were used.
# PWT was measured according to the Schematics in FIG. 9 (prevention) and FIG. 10 (reversal study).
# Data was analyzed by analysis of variance (ANOVA) followed by post-hoc comparisons where appropriate. An effect will be considered significant if p<0.05. Data was represented as the mean and standard error to the mean (s.e.m). Statistical outliers that fell above or below 2 standard deviations of the mean were identified but not removed from the final analysis.
smiles,measurement,setting,value
"Cc1nnc(-c2cc3c(OC[C@@H](O)CN4CCC(c5ccc(Cl)c(Cl)c5)CC4)cccc3o2)o1.Cl [MIN-117, (2S)-1-(4-(3,4-dichlorophenyl)piperidin-1-yl)-3-((2-(5-methyl-1,3,4-oxadiazol-2-yl)benzofuran-4-yl)oxy)propan-2-ol hydrochloride]",PWT compared to vehicle (in words),1 mg/kg i.p. once daily for 2 weeks,significant increase in PWT; also recorded: significantly higher PWT
same,PWT compared to vehicle (in words),3 mg/kg i.p. once daily for 2 weeks,significant increase in PWT; also recorded: significantly higher PWT
same,PWT compared to vehicle (in words),10 mg/kg i.p. once daily for 2 weeks,significant increase in PWT; also recorded: significantly higher PWT
same,PWT after cessation of treatment (in words),"1, 3 and 10 mg/kg i.p., day 35, one week after cessation of treatment",no analgesic effects; also recorded: returned to vehicle levels
